From US6864244B2, “Anhydrous crystalline 1-[4(S)-azido-2(S),3(R)-dihydroxy-4-(hydroxymethyl)-1(R)-cyclopentyl]cytosine hemisulfate as useful as an antiviral agent” (Roche Palo Alto LLC, priority 2002, dated 2005) come the findings set out here.

Assay type in all cases: physicochemical
Series [1] in a line: Hygroscopicity at 93% relative humidity (weight gain, HPLC assay). As to the method:
(§1) A small amount of the polymorphic Form C crystal (about 10 mg) was weighed into a weighing bottle and placed in a chamber with controlled relative humidity for 4 weeks and the percentage of water absorbed was calculated form the weight gain. The sample was also assayed by HPLC against an external standard on a Waters 2690 HPLC at 276 nm with a Zorbax SB-Phenyl column. The mobile phase is a gradient run at 1 mL/min consisting of acetonitrile/water with 10 mM heptane sulfonic acid, 0.1% phosphoric acid in both. The gradient is run as 10% ACN to 100% in 30 min. The data was processed using Waters Millennium software version 3.2. The thermal stability also was determined at 60° C. and at 40° C./75% relative humidity. The purity of the sample was determined by assaying weighed aliquots by HPLC against an external standard.

Series [2] can be described thus: Differential scanning calorimetry (DSC), thermal properties. In general terms: In DSC, transitions show as peaks or steps in heat flow.
Series [3] can be described thus: Polymorph transformation in the presence of moisture.
Series [4] in a line: Thermal stability on storage at 60° C. and at 40° C./75% relative humidity (HPLC assay against external standard). The following applies: for ASSAY: HPLC. Here is the method: as §1
Series [5] can be described thus: Accelerating rate calorimetric (ARC) determination (adiabatic calorimetry conditions).

Each structure is given as a SMILES string. Where two headings read alike, the source gives them in different places.

On to `[N-]=[N+]=N[C@]1(CO)O[C@@H](n2ccc(N)nc2=O)[C@H](O)[C@@H]1O` [Ia], for which the “hygroscopicity relative to the free base” value in series [1] is recorded as “less hygroscopic than the free base”. For the same compound, the “weight gain on storage” value in series [1] (stored at high relative humidity) is recorded as “No weight gain”.
Regarding `[N-]=[N+]=N[C@]1(CO)O[C@@H](n2ccc(N)nc2=O)[C@H](O)[C@@H]1O` [Form B of Ia], the figures for the “exothermic decomposition onset temperature” value in series [2] and in series [2] (listed as Form B polymorph of Ia) were “approximately 189 °C” and 189 °C, respectively. For the same compound, the polymorphic transformation result in series [3] was “transformed into Form C”.
`[N-]=[N+]=N[C@]1(CO)O[C@@H](n2ccc(N)nc2=O)[C@H](O)[C@@H]1O` [Form C of Ia]: the “exothermic decomposition onset temperature” value in series [2] was “approximately 210 °C”; in series [2] (listed as Form C polymorph of Ia), 210 °C. For the same compound, the APPEARANCE result in series [1] (93% RH, 4 weeks) is on record as “white powder”; in series [4] (40° C./75% RH, 1 week), “white powder”; in series [4] (40° C./75% RH, 2 weeks), “white powder”; in series [4] (40° C./75% RH, 4 weeks) it was “white powder”; in series [4] (60° C., 1 week), “white powder”; in series [4] (60° C., 2 weeks) it was “white powder”. The APPEARANCE entry in series [4] (60° C., 4 weeks) was “white powder”. For the same compound, the POLYMORPH entry was “Form C” in series [1] (93% RH, 4 weeks); “Form C” in series [4] (40° C./75% RH, 1 week); “Form C” in series [4] (40° C./75% RH, 4 weeks); “Form C” in series [4] (60° C., 1 week); “Form C” in series [4] (60° C., 4 weeks). Besides, the “WEIGHT GAIN” value in series [1] (93% RH, 4 weeks) is recorded as 0%. Further, the ASSAY amounted to 99.9 in series [1] (93% RH, 4 weeks, HPLC); 99.9 in series [4] (40° C./75% RH, 1 week); 99.9 in series [4] (40° C./75% RH, 2 weeks); 99.9 in series [4] (40° C./75% RH, 4 weeks); 99.9 in series [4] (60° C., 1 week); 99.9 in series [4] (60° C., 2 weeks). The ASSAY in series [4] (60° C., 4 weeks) came out at 99.9. The hygroscopicity entry in series [1] (93% relative humidity, 4 weeks) is listed as “not hygroscopic”. Also, in series [4] (at 40 and 60° C. over the duration of the assay), the thermal stability entry was “thermal stable”. The “Adiabatic Temperature Rise” value in series [5] turned out to be 265 °C. Further, the “corrected exothermic decomposition onset temperature” value in series [5] came to 152 °C. The “enthalpy of decomposition exotherm” value in series [5] is -132 cal/g.
`[N-]=[N+]=N[C@]1(CO)O[C@@H](n2ccc(N)nc2=O)[C@H](O)[C@@H]1O` [Form A of Ia]: the “exothermic decomposition onset temperature” value in series [2] is “approximately 185 °C”; in series [2] (listed as Form A polymorph of Ia), 185 °C. Also, in series [3], the polymorphic transformation entry is “transformed into Form C”.
